The text below walks through data of BindingDB's records for doi:10.7270/Q2SX6BN0 (The Scripps Research Institute Molecular Screening Center, 2010).

Molecules are shown by their SMILES. pIC50: −log10 of the molar value.

The test addresses T1, NADPH oxidase 1 (Homo sapiens, UniProt Q9Y5S8).
T1 sequence (Q9Y5S8 whole entry): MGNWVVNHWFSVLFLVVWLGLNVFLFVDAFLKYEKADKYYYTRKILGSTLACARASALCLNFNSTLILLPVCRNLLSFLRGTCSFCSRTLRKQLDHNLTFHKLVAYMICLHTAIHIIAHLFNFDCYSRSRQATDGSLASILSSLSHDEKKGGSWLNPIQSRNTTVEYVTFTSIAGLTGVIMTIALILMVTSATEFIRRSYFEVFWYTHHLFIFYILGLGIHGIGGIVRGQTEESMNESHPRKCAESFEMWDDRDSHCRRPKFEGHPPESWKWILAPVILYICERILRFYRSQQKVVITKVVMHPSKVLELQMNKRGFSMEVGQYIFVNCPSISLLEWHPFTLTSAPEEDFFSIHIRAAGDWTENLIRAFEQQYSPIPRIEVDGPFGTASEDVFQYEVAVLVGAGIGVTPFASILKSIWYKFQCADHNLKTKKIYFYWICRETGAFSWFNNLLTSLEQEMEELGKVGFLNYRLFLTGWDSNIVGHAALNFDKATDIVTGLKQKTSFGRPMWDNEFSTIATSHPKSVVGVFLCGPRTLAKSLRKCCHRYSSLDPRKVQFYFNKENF
In words: ROS production inhibition in HEK293 cells, late-stage follow-up, counter-screen for NOX1 inhibitor project, cell-based, IC50, set 2 (AID 435002).

The pIC50 is the negative decadic logarithm of the IC50, by convention in mol/L. The low end stands for a large IC50, the high end for a small IC50. `CN(C)c1ccc(CN=Nc2c(Cl)cncc2Cl)cc1` had a pIC50 of 5.40. The value for `Oc1c(Br)cc(CN=Nc2c(Cl)cncc2Cl)cc1Br` [4-[[2-[3,5-bis(chloranyl)pyridin-4-yl]hydrazinyl]methylidene]-2,6-bis(bromanyl)cyclohexa-2,5-dien-1-one] was 5.00.
